Results as given in patent publication US20260223897A1, “SIAMENOSIDE I SWEETENED BEVERAGES WITH MOGROSIDE BLENDS” (The Coca-Cola Company, priority 2023, published 2026).

How the values were obtained:
[1] = Taste of blends with siamenoside I, findings summarised in the description
panelists [2] = assay: Example 1 paired taste test: panelists select the more bitter sample; assay type: in vivo
Procedure: The sample was tested within 24 hours at room temperature.
Taste tests were carried out with 7-9 panelists and run singlet to triplet.

panelists [3] = assay: Example 2 paired sensory test: more bitter sample; assay type: in vivo; details: Table 6
panelists [4] = assay: Example 3 paired sensory test: more bitter sample; assay type: in vivo
Procedure: Samples were tested within 7 days. […] Each pair of mogroside blends was evaluated by each panelist in triplet.

panelists [5] = assay: Example 3 paired sensory test: higher licorice flavor; assay type: in vivo; details: Table 14; Sample A = 500 ppm Siamenoside I alone vs Sample B (tri-blend of same row, 500 ppm total)
Procedure: Samples were tested within 7 days.
Sensory tests were carried out with 8-12 panelists. Each pair of mogroside blends was evaluated by each panelist in triplet.

[6] = cited from earlier work
panelists [7] = assay: Example 2 paired sensory test: higher licorice flavor; details: Table 7; Sample A = 400 ppm Siamenoside I alone vs Sample B (blend, 400 ppm total)
panelists [8] = assay: Example 2 paired sensory test: higher syrupy mouthfeel; details: Table 10; Sample A = 400 ppm Siamenoside I alone vs Sample B (blend, 400 ppm total)

C[C@H](CC[C@@H](O[C@@H]1O[C@H](CO[C@@H]2O[C@H](CO)[C@@H](O)[C@H](O)[C@H]2O)[C@@H](O)[C@H](O)[C@H]1O)C(C)(C)O)[C@H]1CC[C@@]2(C)C3CC=C4[C@@H](CC[C@H](O[C@@H]5O[C@H](CO)[C@@H](O)[C@H](O)[C@H]5O)C4(C)C)[C@]3(C)[C@H](O)C[C@]12C (stereo partly drawn) [Mogroside III]
taste attributes when blended with siamenoside I vs siamenoside I only sweetened beverages ([1]; blended with siamenoside I in certain ratios): less objectionable taste attributes

C[C@H](CC[C@@H](O[C@@H]1O[C@H](CO[C@@H]2O[C@H](CO)[C@@H](O)[C@H](O)[C@H]2O)[C@@H](O)[C@H](O)[C@H]1O)C(C)(C)O)[C@H]1CC[C@@]2(C)C3CC=C4[C@@H](CC[C@H](O[C@@H]5O[C@H](CO[C@@H]6O[C@H](CO)[C@@H](O)[C@H](O)[C@H]6O)[C@@H](O)[C@H](O)[C@H]5O)C4(C)C)[C@]3(C)[C@H](O)C[C@]12C (stereo partly drawn) [Mogroside IVA]
perception of bitterness in blends ([1]; in certain blends): increase the perception of bitterness

C[C@H](CC[C@@H](O[C@@H]1O[C@H](CO[C@@H]2O[C@H](CO)[C@@H](O)[C@H](O)[C@H]2O)[C@@H](O)[C@H](O)[C@H]1O[C@@H]1O[C@H](CO)[C@@H](O)[C@H](O)[C@H]1O)C(C)(C)O)[C@H]1CC[C@@]2(C)[C@@H]3CC=C4[C@@H](CC[C@H](O[C@@H]5O[C@H](CO[C@@H]6O[C@H](CO)[C@@H](O)[C@H](O)[C@H]6O)[C@@H](O)[C@H](O)[C@H]5O)C4(C)C)[C@]3(C)[C@H](O)C[C@]12C [Mogroside V]
impact on bitterness in blends with siamenoside I ([1]; when present in certain amounts in blends with siamenoside I): do not impact bitterness

C[C@H](CC[C@@H](O[C@@H]1O[C@H](CO[C@@H]2O[C@H](CO)[C@@H](O)[C@H](O)[C@H]2O)[C@@H](O)[C@H](O)[C@H]1O[C@@H]1O[C@H](CO)[C@@H](O)[C@H](O)[C@H]1O)C(C)(C)O)[C@H]1CC[C@@]2(C)[C@@H]3CC=C4[C@@H](CC[C@H](O[C@@H]5O[C@H](CO)[C@@H](O)[C@H](O)[C@H]5O)C4(C)C)[C@]3(C)[C@H](O)C[C@]12C [Siamenoside I]
Number of Panelists that chose A as more bitter (panelists [2]; Table 1, Sample A = 400 ppm siamenoside alone vs Sample B (blend of same row, 400 ppm total mogroside), filtered water): 15 | Number of Panelists that chose A as more bitter (panelists [2]; Table 2, Sample A = 400 ppm Siamenoside I alone vs Sample B (blend, 400 ppm total)): 6 | Number of Panelists that chose A as more bitter (panelists [2]; Table 3, Sample A = 400 ppm Siamenoside I alone vs Sample B (blend, 400 ppm total)): 10 | Number of Panelists that chose A as more bitter (panelists [2]; Table 3, Sample A = 500 ppm Siamenoside I alone vs Sample B (blend, 500 ppm total)): 7 | Number of Panelists that chose A as more bitter (panelists [3]; Sample A = 400 ppm Siamenoside I alone vs Sample B (blend, 400 ppm total)): 17 | Number of Panelists that chose A as more bitter (panelists [3]; Sample A = 500 ppm Siamenoside I alone vs Sample B (blend, 500 ppm total), Sample B with 400 ppm of Siamenoside I): 12 | Number of Panelists that chose A as more bitter (panelists [3]; Sample A = 500 ppm Siamenoside I alone vs Sample B (blend, 500 ppm total), Sample B with 450 ppm of Siamenoside I): 15 | Number of Panelists that chose A as more bitter (panelists [3]; Sample A = 500 ppm Siamenoside I alone vs Sample B (blend, 500 ppm total), Sample B with 487.5 ppm of Siamenoside I): 13 | Number of Panelist to choose A as more bitter (panelists [4]; Table 11, Sample A = 500 ppm Siamenoside I alone vs Sample B (tri-blend, 500 ppm total)): 19 | Number of Panelist to choose A as more bitter (panelists [4]; Table 13, Sample A = 500 ppm Siamenoside I alone vs Sample B (blend, 500 ppm total)): 16 | Number of Panelist to choose A as higher licorice flavor (panelists [5]): 23 | taste balance compared with mogroside V ([6]; WO 2018213683 A1): better balance in sweetness, bitterness, sweet linger, astringency, and mouthfeel than mogroside V | sensory properties at high concentrations ([6]; high purity, concentrations required to achieve a sucrose equivalence to 10° Brix): significant off-tastes such as licorice, metallic and bitter tastes, as well as sweetness lingering and bitter lingering | Number of Panelist that chose A as higher licorice flavor (panelists [7]): 20 | Number of Panelist to choose A as higher syrupy mouthfeel (panelists [8]): 7
